Laboratory results published in patent publication US20120009152A1, “NITRIC OXIDE DONORS FOR TREATMENT OF DISEASE AND INJURY” (priority 2002, published 2012).

Experiments:
[1] = system: BrdU immunoreactive cells in dentate gyrus, SVZ and OB; assay: Cell proliferation (BrdU) in non-ischemic aged rats; type: in vivo, rat; settings: non-ischemic 18-month-old rats; DETA/NONOate 0.4 mg/kg daily 7 days; vs saline
Protocol: […] […] I.V bolus doses of DETA/NONOate (0.1 mg/kg each, every 15 min, and total dose of 0.4 mg/kg) on the first experimental day and DETA/NONOate (0.4 mg/kg) was administered (i.p) daily for an additional 6 consecutive days. Rats that received saline were used as a control group. Bromodeoxyuridine (BrdU) was used as mitotic labeling to measure cell proliferation. Animals received daily i.p injections of BrdU (50 mg/kg, Sigma) on the first experimental day and subsequently for 14 consecutive days. Rats were sacrificed at 14 and 42 days after the treatment. BrdU immunoreactive nuclei were counted on a computer monitor to improve visualization and in one focal plane to avoid over-sampling. Structures were sampled either by selecting predetermined areas on each section (OB) or by analyzing entire structures on each section (SVZ and dentate gyrus) (Zhang et al., 2001). All BrdU immunoreactive-positive nuclei in these areas are presented as the number of the BrdU immunoreactive cells/mm^2. Density for the selected several sections was averaged to obtain a mean density value for each animal (Zhang et al., 2001).
The question of whether this induction of neurogenesis by means of an NO donor in young adult (3-4 month old) rats would also be present in older rats was also tested. […]

rat VEGF = assay: Sandwich ELISA of VEGF secretion from endogenous cells after MCAo; type: in vivo; settings: vs MCAo control group
Protocol: (§1) Male Wistar rats (n=32) were subjected to middle cerebral artery occlusion (MCAo) and were randomized with 8 rats in four treatment groups, with treatment initiated 1 day after stroke. Groups included: 1) phosphate buffered saline (PBS); 2) subtherapeutic DETA-NONOate (NN) at a dose of 0.4 mg/kg (IP); 3) subtherapeutic hMSCs (1×10^6 cells-iv); and 4) combination subtherapeutic NN and hMSCs. Functional outcome measurements consisted of a Neurologic Severity Scale (18 point scale) (NSS) and the Adhesive Removal Test performed prior to stroke, immediately before treatment and at 7 and 14 days after treatment. […] However, there was an overall hMSC effect on NSS at 14 days.
To obtain insight into the mechanisms associated with the induction of angiogenesis and neurogenesis, the fact that combination therapy induces the expression of neurotrophic and growth factors in brain was tested. Data are presented on the levels of vascular endothelial growth factor (VEGF) in brain after treatment with MSCs.

[2] = system: cerebral vessels in the ischemic penumbra; assay: Angiogenesis after MCAo, combination study (BrdU endothelial cells, three-dimensional vessel analysis); type: in vivo, rat; settings: vs control MCAo group
Protocol: as §1
Enlarged and thin walled vessels are termed “mother” vessels and have been found under conditions of cerebral ischemic angiogenesis.
FIGS. 11B and C are computer generated three-dimensional images derived from the original images. Different colors in FIG. 11B represent individual vessels, which were not connected to each other. Green and red colors in FIG. 11C code for diameter of blood vessels less then 7.5 μm (red) and larger then 7.5 μm (green), respectively. […] Enlarged vessels can develop into capillaries after ischemia.

[3] = system: brain-derived endothelial cells; assay: Endothelial tube formation, total tube length; type: cell-based; settings: vs control medium DMEM 1.4 (0.1); p<0.01
From the text: The enhance induction of angiogenesis is also evident from in vitro studies of tubule formation in brain derived endothelial cells. […] The endothelial cells formed a network of capillary-like structures with numerous intercellular contacts.

[4] = system: BrdU positive cells in the subventricular zone; assay: BrdU positive cells in ipsilateral subventricular zone, combination study; type: in vivo, rat; settings: treatment 1 day after MCAo; NN 0.4 mg/kg IP, hMSCs 1×10^6 cells iv; PBS control 29.8±8.8
Protocol: as §1
BrdU (50 mg/kg-ip) was injected daily for 14 days after treatment in all groups. BrdU is a thymidine analog that labels newly formed DNA and thereby identifies newly formed cells. […] BrdU found in the cytoplasm of macrophage-like cells were not counted. […] The percentage of BrdU reactive cells that express NeuN and GFAP proteins was approximately, 3%, 3% and 6%, respectively.

[5] = system: rats subjected to embolic middle cerebral artery occlusion; assay: Adhesive removal test after embolic MCA occlusion; type: in vivo, rat
Protocol: Male Wistar rats weighing 320 to 380 g were used in the present study. The middle cerebral artery (MCA) was occluded by placement of an embolus at the origin of the MCA.
Ischemic rats (n=9) were treated with the same volume of tap water as a control group. Functional tests were performed and body weight was measured before ischemia and at 4, 7, 14, 21, and 28 days after onset of MCA occlusion. All rats were killed 28 days after MCA occlusion. […] These rats were killed 1 hour after the last treatment for measurements of brain levels of cGMP. […] Experiments were also performed to examine brain PDE5, nonischemic rats and ischemic rats were killed at 2, 4, 24, 48, and 168 hours after the onset of ischemia (n=3 for each time point). Reverse transcription (RT)-polymerase chain reaction (PCR) was performed to detect PDE5 in brain tissue.
An adhesive removal test was used to measure somatosensory deficits and was performed before MCA occlusion and at 4, 7, 14, 21 and 28 days after MCA occlusion.

SMILES: NCCN(CCN)/[N+]([O-])=N/O [DETANONOate, (Z)-1-[N-(2-aminoethyl)-N-(2-ammonioethyl)aminio]diazen-1-ium-1,2-diolate]
- number of proliferating cells (dentate gyrus, SVZ, OB) [1]: significantly increased the number of proliferating cells
- VEGF secretion from endogenous cells (rat VEGF) (rat VEGF): did not show a significant increase
- BrdU immunoreactive endothelial cells in enlarged vessels, ipsilateral hemisphere [2]: significant (p<0.05) increase
- Total tube length [3]: 4.6±0.6 mm/mm^2
- BrdU positive cells in the ipsilateral hemisphere subventricular zone [4]: 43.6±10.0 /section

SMILES: CCCc1nn(C)c2c(=O)[nH]c(-c3cc(S(=O)(=O)N4CCN(C)CC4)ccc3OCC)nc12 [Sildenafil]
- Adhesive Removal Test ([5]; Sildenafil 2 mg/kg, 2 h, 4 d): 96.4 ± 9.8 s
- Adhesive Removal Test ([5]; Sildenafil 2 mg/kg, 2 h, 7 d): 41.9 ± 8.4 s
- Adhesive Removal Test ([5]; Sildenafil 2 mg/kg, 2 h, 14 d): 27.6 ± 3.9 s
- Adhesive Removal Test ([5]; Sildenafil 2 mg/kg, 2 h, 21 d): 23.6 ± 5.1 s
- Adhesive Removal Test ([5]; Sildenafil 2 mg/kg, 2 h, 28 d): 15.9 ± 3.8 s
- Adhesive Removal Test ([5]; Sildenafil 2 mg/kg, 2 h group, Before Ischemia (baseline)): 7.0 ± 0.1 s
- Adhesive Removal Test ([5]; Sildenafil 2 mg/kg, 24 h, 4 d): 102 ± 6.6 s
- Adhesive Removal Test ([5]; Sildenafil 2 mg/kg, 24 h, 7 d): 49.4 ± 4.5 s
- Adhesive Removal Test ([5]; Sildenafil 2 mg/kg, 24 h, 14 d): 14.1 ± 1.3 s
- Adhesive Removal Test ([5]; Sildenafil 2 mg/kg, 24 h, 21 d): 14.0 ± 1.0 s
- Adhesive Removal Test ([5]; Sildenafil 2 mg/kg, 24 h, 28 d): 10.7 ± 0.9 s
- Adhesive Removal Test ([5]; Sildenafil 2 mg/kg, 24 h group, Before Ischemia (baseline)): 6.8 ± 0.3 s
- Adhesive Removal Test ([5]; Sildenafil 5 mg/kg, 2 h, 4 d): 100.7 ± 9.2 s
- Adhesive Removal Test ([5]; Sildenafil 5 mg/kg, 2 h, 7 d): 70.7 ± 10.8 s
- Adhesive Removal Test ([5]; Sildenafil 5 mg/kg, 2 h, 14 d): 38.6 ± 7.9 s
- Adhesive Removal Test ([5]; Sildenafil 5 mg/kg, 2 h, 21 d): 26.0 ± 6.6 s
- Adhesive Removal Test ([5]; Sildenafil 5 mg/kg, 2 h, 28 d): 14.8 ± 3.9 s
- Adhesive Removal Test ([5]; Sildenafil 5 mg/kg, 2 h group, Before Ischemia (baseline)): 16.7 ± 0.4 s
